How the values were obtained:
Assay in all cases: relative viability (nuclei count vs DMSO), 5 days (fraction); higher = more cells survive
[1] = compound: C1CNCCC1C2=CC(=NN2)C3=CC=NC=C3
Summary of the method: (§1)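 Lung cancer cell lines in 1536-well plates were exposed by pinning to five library-drug doses (not always all listed) √10 apart, following an overnight hold at 37 °C. MetaXpress counted Hoechst-stained nuclei from 4× images taken after 5 days without medium change. Viability is the median ratio of treated-well to vehicle-well nuclei across plates. Plates required control CV below 25% and at least one doubling.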

Tanzisertib = compound: O[C@H]1CC[C@H](Nc2ncc3nc(Nc4c(F)cc(F)cc4F)n([C@H]4CCOC4)c3n2)CC1 [Tanzisertib]
Summary of the method: as §1

[2] = compound: C[C@@H](N)c1ccc(C(=O)Nc2ccnc3[nH]ccc23)cc1
Summary of the method: as §1

[3] = compound: C1CNCCC1C2=CC(=NN2)C3=CC=NC=C3 + Cc1nc(NC(=O)N2CCC[C@H]2C(N)=O)sc1-c1ccnc(C(C)(C)C(F)(F)F)c1 [Alpelisib] (partner 2 µM)
Summary of the method: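 Relative viability is defined as nuclei in treated wells over nuclei in vehicle wells. Duplicate plates were run and medians reported. Lung cancer cell lines in 1536-well plates were dosed by pin tool one day after seeding, with one drug or with a fixed anchor-drug dose plus five library-drug doses (not always all listed) in √10 steps, and nuclei were counted after 5 days.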

| Cell Line | relative viability ([1]; 0.08 µM) | relative viability ([1]; 0.8 µM) | relative viability ([1]; 2.53 µM) | relative viability ([1]; 8 µM) | relative viability (Tanzisertib; 0.08 µM) | relative viability (Tanzisertib; 0.253 µM) | relative viability (Tanzisertib; 0.8 µM) | relative viability (Tanzisertib; 2.53 µM) | relative viability (Tanzisertib; 8 µM) | relative viability ([2]; 0.04 µM) | relative viability ([2]; 0.1265 µM) | relative viability ([2]; 0.4 µM) | relative viability ([2]; 1.265 µM) | relative viability ([2]; 4 µM) | relative viability ([3]; first compound 0.08 µM) | relative viability ([3]; first compound 0.8 µM) | relative viability ([3]; first compound 2.53 µM) | relative viability ([3]; first compound 8 µM) |
| --- | --- | --- | --- | --- | --- | --- | --- | --- | --- | --- | --- | --- | --- | --- | --- | --- | --- | --- |
| LK-2 | 0.729 | 1.02 | 1.07 | 1.05 | 1.16 | 1.06 | 1 | 1.03 | 1.03 | 1.32 | 0.863 | 1.04 | 0.929 | 1.21 | 1.09 | 1.11 | 1.21 | 1.24 |
| HCC-15 | 0.987 | 1.1 | 0.98 | 0.939 | 1.16 | 1 | 1.04 | 0.944 | 0.768 | 1.03 | 0.971 | 1.02 | 0.623 | 0.908 | 0.856 | 0.856 | 0.898 | 0.839 |
| NCI-H727 | 0.874 | 0.942 | 1.05 | 1.22 | 0.918 | 0.901 | 1.01 | 0.887 | 0.944 | 1.02 | 1.17 | 1.25 | 0.932 | 1.3 | 0.478 | 0.552 | 0.542 | 0.524 |
| HOP-62 | 1.09 | 1.11 | 1.05 | 1.02 | 1.1 | 1.03 | 1 | 1.12 | 1.03 | 0.957 | 0.949 | 1.03 | 0.884 | 0.899 | 0.734 | 0.933 | 1.11 | 0.858 |
| Calu-6 | 0.964 | 1.02 | 1.01 | 0.998 | 1.01 | 1.01 | 1.01 | 1.01 | 0.931 | 1.02 | 1.03 | 1.03 | 0.935 | 0.826 | 0.896 | 1.05 | 1.03 | 1.04 |
| NCI-H3122 | 0.978 | 1.03 | 1.02 | 0.988 | 1.02 | 0.964 | 1.03 | 1 | 0.936 | 0.997 | 1.04 | 0.975 | 1 | 0.894 | 0.87 | 0.81 | 0.799 | 0.753 |
| NCI-H1395 | 0.861 | 0.733 | 1.07 | 0.882 | 0.986 | 1 | 0.96 | 1.03 | 0.715 | 0.889 | 0.924 | 0.949 | – | 0.828 | 0.977 | 0.77 | 1.46 | 0.975 |
| NCI-H647 | 1.02 | 0.947 | 1 | 0.868 | 1.21 | 0.976 | 0.973 | 1.12 | 0.779 | 0.992 | 0.955 | 0.916 | 0.694 | 0.811 | 0.969 | 1.12 | 1.31 | 1.22 |
| NCI-H650 | 0.946 | 0.933 | 1.08 | 0.998 | 0.973 | 1.01 | 0.975 | 1.14 | 0.411 | – | 0.849 | 0.932 | – | 0.785 | 0.86 | 1.08 | 1.22 | 0.997 |
